Here are results for one molecule from ChEMBL document CHEMBL5727551, “5-(n-[6,5]-fused bicyclic aryl tetrahydroisoquinolin-6-yl) pyridin-3-yl acetic acid derivatives as inhibitors of human immunodeficiency virus replication” (2020).

The assay in a line: Inhibition of HIV Replication: A recombinant NL-RLuc proviral clone was constructed in which a section of the nef gene from NL4-3 was replaced with the Renilla Luciferase gene. This virus is fully infectious and can undergo multiple cycles of replication in cell culture. In addition, the luciferous reporter provides a simple and easy method for quantitating the extent of virus growth and consequently, the antiviral activity of test compounds. The plasmid pNLRLuc contains the proviral NL-Rluc DNA cloned into pUC 18 at the PvuII site. The NL-RLuc virus was prepared by transfection of 293T cells with the plasmid pNLRLuc. Transfections were performed using the LipofectAMINE PLUS kit from Invitrogen (Carlsbad, Calif.) according to the manufacturer and the virus generated was titered in MT-2 cells. For susceptibility analyses, the titrated virus was used to infect MT-2 cells in the presence of compound, and after 5 days of incubation, cells were processed and quantitated for virus growth by the amount of expressed luciferase. Assay media was RPMI 1640 supplemented with 10% heat inactivated fetal bovine serum (FBS), 100 units/ml penicillin G/100 units/ml streptomycin, 10 mM HEPES buffer pH 7.55 and 2 mM L-glutamine. The results from at least 2 experiments were used to calculate the EC50 values. Luciferase was quantitated using the Dual Luciferase kit from Promega (Madison, Wis.). […]. Type of assay: cell-based.

The EC50 is the concentration that produces a half-maximal response. In the case of `Cc1nc(C)c([C@H](OC(C)(C)C)C(=O)O)c(N2CCC(C)(C)CC2)c1-c1ccc2c(c1)CCN(c1ncnc3cc[nH]c13)C2`, the EC50 was 20 nM.
